Reference: US20220380829A1, “Method of Diagonosizing Pathogens and their Antimicrobial Susceptibility” (HANGZHOU DIAN MEDICAL LABORATORY CO., LTD., priority 2019, published 2022)

Assays:
[1] = tested on: Enterococcus faecalis; assay: VITEK2 Compact AST (AST-P639 cards), gold standard culture-based AST; assay type: cell-based
[2] = tested on: Streptococcus pneumoniae; assay: VITEK2 Compact AST (AST-GP68 cards) with penicillin disc diffusion, gold standard culture-based AST; assay type: cell-based
Description: (§1) Step 1. Drug susceptibility verification: The Streptococcus pneumoniae isolates were tested for drug susceptibility using bioMérieux Vitek2 Compact System and AST-GP68 cards, and specifically, the susceptibility of penicillin was double checked by disc diffusion method (OXOID, CT0043B), and the combined results were used as the gold standard (culture-based AST).
as §1, with “Sample collection and drug” for “Drug”, “48 clinical” for “The”, “pneumoniae isolates were collected from 18 hospitals across china in a period between May 2017 and October 2019. All” for “pneumoniae”, “card,” for “cards,”

[3] = Resistance profile classification A
[4] = Resistance profile classification B
[5] = Resistance profile classification C
[6] = Resistance profile classification D
[7] = Resistance profile classification F (first line so labelled, r12)
[8] = Resistance profile classification F (second line so labelled, r13)
[9] = Resistance profile classification G
[10] = Resistance profile classification H
[11] = Resistance profile classification I
[12] = Resistance profile classification J
[13] = Resistance profile classification K
[14] = Resistance profile classification L
[15] = Resistance profile classification M
[16] = Resistance profile classification S
Further: key: ‘R’ indicates drug-resistant; ‘S’ indicates drug-susceptible.

| Compound | Susceptibility of Emterococcus faecalis to 11 antibacterial drugs [1, 3] | Susceptibility of Emterococcus faecalis to 11 antibacterial drugs [1, 4] | Susceptibility of Emterococcus faecalis to 11 antibacterial drugs [1, 5] | Susceptibility of Emterococcus faecalis to 11 antibacterial drugs [1, 6] | Susceptibility of Emterococcus faecalis to 11 antibacterial drugs [1, 7] | Susceptibility of Emterococcus faecalis to 11 antibacterial drugs [1, 8] | Susceptibility of Emterococcus faecalis to 11 antibacterial drugs [1, 9] | Susceptibility of Emterococcus faecalis to 11 antibacterial drugs [1, 10] | Susceptibility of Emterococcus faecalis to 11 antibacterial drugs [1, 11] | Susceptibility of Emterococcus faecalis to 11 antibacterial drugs [1, 12] | Susceptibility of Emterococcus faecalis to 11 antibacterial drugs [1, 13] | Susceptibility of Emterococcus faecalis to 11 antibacterial drugs [1, 14] | Susceptibility of Emterococcus faecalis to 11 antibacterial drugs [1, 15] | Susceptibility of Emterococcus faecalis to 11 antibacterial drugs [1, 16] | Blind 1 by AST [2] | blind 2 by AST [2] | further results |
| --- | --- | --- | --- | --- | --- | --- | --- | --- | --- | --- | --- | --- | --- | --- | --- | --- | --- |
| CC1(C)S[C@@H]2[C@H](NC(=O)[C@H](N)c3ccccc3)C(=O)N2[C@H]1C(=O)O [ampicillin] | R | R | R | R | R | R | S | S | S | S | S | S | S | S | – | – | Susceptibility of Streptococcus pneumoniae to 14 antibacterial drugs [2, 3]: R; Susceptibility of Streptococcus pneumoniae to 14 antibacterial drugs [2, 4]: R; Susceptibility of Streptococcus pneumoniae to 14 antibacterial drugs [2, 5]: R; Susceptibility of Streptococcus pneumoniae to 14 antibacterial drugs [2, 6]: R; Susceptibility of Streptococcus pneumoniae to 14 antibacterial drugs ([2]; Resistance profile classification E): R; Susceptibility of Streptococcus pneumoniae to 14 antibacterial drugs ([2]; Resistance profile classification F): R; Susceptibility of Streptococcus pneumoniae to 14 antibacterial drugs [2, 9]: S; Susceptibility of Streptococcus pneumoniae to 14 antibacterial drugs [2, 10]: S; Susceptibility of Streptococcus pneumoniae to 14 antibacterial drugs [2, 11]: S; Susceptibility of Streptococcus pneumoniae to 14 antibacterial drugs [2, 12]: S; Susceptibility of Streptococcus pneumoniae to 14 antibacterial drugs [2, 16]: S |
| CO/N=C(\C(=O)N[C@@H]1C(=O)N2C(C(=O)[O-])=C(C[N+]3(C)CCCC3)CS[C@H]12)c1csc(N)n1 [cefepime] | – | – | – | – | – | – | – | – | – | – | – | – | – | – | S | R | – |
| CO/N=C(\C(=O)N[C@@H]1C(=O)N2C(C(=O)O)=C(COC(C)=O)CS[C@H]12)c1csc(N)n1 [cefotaxime] | – | – | – | – | – | – | – | – | – | – | – | – | – | – | S | R | – |
| CO/N=C(\C(=O)N[C@@H]1C(=O)N2C(C(=O)O)=C(CSc3nc(=O)c(=O)[nH]n3C)CS[C@H]12)c1csc(N)n1 [ceftriaxone] | – | – | – | – | – | – | – | – | – | – | – | – | – | – | S | R | – |
| CCCCCCCCCC(=O)N[C@@H](Cc1c[nH]c2ccccc12)C(=O)N[C@H](CC(N)=O)C(=O)N[C@@H](CC(=O)O)C(=O)N[C@@H]1C(=O)NCC(=O)N[C@@H](CCCN)C(=O)N[C@@H](CC(=O)O)C(=O)N[C@H](C)C(=O)N[C@@H](CC(=O)O)C(=O)NCC(=O)N[C@H](CO)C(=O)N[C@@H]([C@H](C)CC(=O)O)C(=O)N[C@@H](CC(=O)c2ccccc2N)C(=O)O[C@@H]1C [daptomycin] | S | S | S | S | S | S | S | S | S | S | S | S | S | S | – | – | – |
| C[C@@H](O)[C@H]1C(=O)N2C(C(=O)O)=C(S[C@@H]3CN[C@H](C(=O)Nc4cccc(C(=O)O)c4)C3)[C@H](C)[C@H]12 [ertapenem] | – | – | – | – | – | – | – | – | – | – | – | – | – | – | S | S | – |
| CC[C@H]1OC(=O)[C@H](C)[C@@H](O[C@H]2C[C@@](C)(OC)[C@@H](O)[C@H](C)O2)[C@H](C)[C@@H](O[C@@H]2O[C@H](C)C[C@H](N(C)C)[C@H]2O)[C@](C)(O)C[C@@H](C)C(=O)[C@H](C)[C@@H](O)[C@]1(C)O [erythromycin] | R | R | R | S | R | R | R | R | R | R | S | S | S | S | R | R | – |
| C[C@H]1COc2c(N3CCN(C)CC3)c(F)cc3c(=O)c(C(=O)O)cn1c23 [levofloxacin] | R | R | R | R | S | S | R | S | R | S | R | R | S | 8 | S | S | – |
| C[C@@H](O)[C@H]1C(=O)N2C(C(=O)O)=C(S[C@@H]3CN[C@H](C(=O)N(C)C)C3)[C@H](C)[C@H]12 [meropenem] | – | – | – | – | – | – | – | – | – | – | – | – | – | – | S | S | – |
| COc1c(N2C[C@@H]3CCCN[C@@H]3C2)c(F)cc2c(=O)c(C(=O)O)cn(C3CC3)c12 [moxifloxacin] | – | – | – | – | – | – | – | – | – | – | – | – | – | – | S | S | – |
| CN(C)c1cc(NC(=O)CNC(C)(C)C)c(O)c2c1C[C@H]1C[C@H]3[C@H](N(C)C)C(O)=C(C(N)=O)C(=O)[C@@]3(O)C(O)=C1C2=O [tigecycline] | S | S | S | S | S | S | S | S | S | S | S | S | – | S | – | – | – |
| high-level gentamicin [HLAR] | R | R | S | S | S | S | R | R | R | S | S | S | S | S | – | – | – |
